The pIC50 is −log10 of the IC50, conventionally taken in molar units.

The record followed here is patent publication US11096939B2, “KRAS G12C inhibitors and methods of using the same” (Amgen Inc., priority 2018, dated 2021).

In test [1] the test system is Phosphorylation of ERK1/2 in MIA PaCa-2 cells. Nature of the test: Phospho-ERK1/2 MSD assay. It counts as cell-based. The following applies: compound 2 or 4 hours, 10 ng/mL EGF for 10 min, read-out: p-ERK IC50 (MIA-PaCa-2). Here is the method: Phospho-ERK1/2 MSD Assay:
MIA PaCa-2 (ATCC® CRL-1420™)-cells were cultured in RPMI 1640 Medium (ThermoFisher Scientific 11875093) containing 10% fetal bovine serum (ThermoFisher Scientific 16000044) and 1× penicillin-streptomycin-glutamine (ThermoFisher Scientific 10378016). Sixteen hours prior to compound treatment, MIA PaCa-2 cells were seeded in 96-well cell culture plates at a density of 25,000 cells/well and incubated at 37° C., 5% CO2. A compound dose-response titration was diluted in growth media, added to appropriate wells of a cell culture plate, and then incubated at 37° C., 5% CO2 for 2 or 4 hours. Following compound treatment, cells were stimulated with 10 ng/mL EGF (Roche 11376454001) for 10 min, washed with ice-cold Dulbecco's phosphate-buffered saline, no Ca^2+ or Mg^2+ (ThermoFisher Scientific 14190144), and then lysed in RIPA buffer (50 mM Tris-HC pH 7.5, 1% Igepal, 0.5% sodium deoxycholate, 150 mM NaCl, and 0.5% sodium dodecyl sulfate) containing protease inhibitors (Roche 4693132001) and phosphatase inhibitors (Roche 4906837001). Phosphorylation of ERK1/2 in compound-treated lysates was assayed using Phospho-ERK1/2 Whole Cell Lysate kits (Meso Scale Discovery KI51DWD) according to the manufacturer's protocol. Assay plates were read on a Meso Scale Discovery Sector Imager 6000, and data were analyzed using a 4-parameter logistic model to calculate IC50 values.

Test [2] addresses GDP-bound KRAS protein (aa 1-169), containing both G12C and C118A amino acid substitutions (Homo sapiens, UniProt P01116, C118A/G12C). Nature of the test: Coupled nucleotide exchange assay (SOS-mediated, AlphaScreen). It counts as biochemical. The note with it: compound pre-incubation either 5 min or 2 hours (not stated per value); SOS and GTP added, cRAF AlphaScreen readout. Here is the method: Coupled Nucleotide Exchange Assay:
Following compound pre-incubation, purified SOS protein (aa 564-1049) and GTP (Roche 10106399001) were added to the assay wells and incubated for an additional 30 min (for 5 min compound pre-incubation) or 1 hour (for 2 hour compound pre-incubation). To determine the extent of inhibition of SOS-mediated nucleotide exchange, purified GST-tagged cRAF (aa 1-149), nickel chelate AlphaLISA acceptor beads (PerkinElmer AL108R), and AlphaScreen glutathione donor beads (PerkinElmer 6765302) were added to the assay wells and incubated for 10 minutes. The assay plates were then read on a PerkinElmer EnVision Multilabel Reader, using AlphaScreen® technology, and data were analyzed using a 4-parameter logistic model to calculate IC50 values.
Background: Bead proximity is the source of the signal in Alpha formats.

The mark [3] stands for this setting: Homo sapiens, MIA PaCa-2, MIA PaCa-2 cells.

pIC50: −log10 of the molar value. Like-named read-outs stand apart in the source and are kept apart here.

Chain of GDP-bound KRAS protein (aa 1-169), containing both G12C and C118A amino acid substitutions (P01116 1-169 isoform P01116-2 G12C/C118A): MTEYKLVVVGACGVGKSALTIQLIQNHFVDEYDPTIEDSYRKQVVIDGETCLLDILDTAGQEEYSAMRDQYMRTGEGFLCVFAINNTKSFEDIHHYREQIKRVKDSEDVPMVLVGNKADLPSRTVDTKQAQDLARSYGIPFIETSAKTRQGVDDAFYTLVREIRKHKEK

In the case of `C=CC(=O)N1C[C@H](C)N(C2=NC(=O)C(C)(C3CC3)c3nc(-c4ccccc4F)c(Cl)cc32)C[C@H]1C` (single isomer, unassigned) [Example 1-2-1], the pIC50 in test [1] (MIA PaCa-2 cells) is 5.84. For the same compound, in test [2], the “Coupled Exchange IC50” value came to 5.15 µM.
For `C=CC(=O)N1C[C@H](C)N(C2=NC(=O)C3(CCc4ccccc43)c3nc(-c4ccccc4F)c(Cl)cc32)C[C@H]1C` (single isomer, unassigned) [Example 1-7-1] the same measures were 5.76 and 5.28 µM.
The like results for `C=CC(=O)N1C[C@H](C)N(C2=NC(=O)C(C)(CC(C)C)c3nc(-c4ccccc4F)c(Cl)cc32)C[C@H]1C` (stereo partly drawn) [Example 1-8, 5-((2S,5R)-4-Acryloyl-2,5-dimethylpiperazin-1-yl)-3-chloro-2-(2-fluorophenyl)-8-isobutyl-8-methyl-1,6-naphthyridin-7(8H)-one] were, in that order, 5.43 and 5.78 µM.
For the compound `C=CC(=O)N1C[C@H](C)N(C2=NC(=O)C3(CCCCC3)c3nc(-c4ccccc4F)c(Cl)cc32)C[C@H]1C` [Example 1-6, 5′-((2S,5R)-4-Acryloyl-2,5-dimethylpiperazin-1-yl)-3′-chloro-2′-(2-fluorophenyl)-7′H-spiro[cyclohexane-1,8′-[16,]naphthyridin]-7′-one], the pIC50 in test [1] (setting [3]) was 5.48. In test [2], the “Coupled Exchange IC50” value came to 7.28 µM.
For the compound `C=CC(=O)N1C[C@H](C)N(C2=NC(=O)C(C)(CC)c3nc(-c4ccccc4F)c(Cl)cc32)C[C@H]1C` (single isomer, unassigned) [Example 1-4-1], the pIC50 in test [1] (setting [3]) is 5.56. In addition, the “Coupled Exchange IC50” value in test [2] was determined as 11.2 µM.
For `C=CC(=O)N1C[C@H](C)N(C2=NC(=O)C(C)(C3CC3)c3nc(-c4ccccc4F)c(Cl)cc32)C[C@H]1C` (stereo partly drawn) [Example 1-2, 5-((2S,5R)-4-Acryloyl-2,5-dimethylpiperazin-1-yl)-3-chloro-8-cyclopropyl-2-(2-fluorophenyl)-8-methyl-1,6-naphthyridin-7(8H)-one] the same measures were 5.79 and 20.1 µM.
The like results for `C=CC(=O)N1CCN(C2=NC(=O)C(C)(CC(C)C)c3nc(-c4ccccc4F)c(Cl)cc32)[C@@H](C)C1` (single isomer, unassigned) [Example 3-1-2] were, in that order, 5.75 and 13.3 µM.
Turning to `C=CC(=O)N1C[C@H](C)N(C2=NC(=O)C3(CCc4ccccc43)c3nc(-c4ccccc4F)c(Cl)cc32)C[C@H]1C` (single isomer, unassigned) [Example 1-7-2], the negative-log IC50 (pIC50) in test [1] (MIA PaCa-2 cells) is 5.49. In addition, the “Coupled Exchange IC50” value in test [2] was 7.74 µM.
Consider `C=CC(=O)N1C[C@H](C)N(C2=NC(=O)C3(Cc4ccccc4C3)c3nc(-c4ccccc4F)c(Cl)cc32)C[C@H]1C` [Example 2-2, 5′-((2S,5R)-4-acryloyl-2,5-dimethylpiperazin-1-yl)-3′-chloro-2′-(2-fluorophenyl)-1,3-dihydro-7′H-spiro[indene-2,8′-[1,6]naphthyridin]-7′-one], for which the negative logarithm of the IC50 (pIC50) in test [1] (setting [3]) is 5.75. Further, the “Coupled Exchange IC50” value in test [2] was 3.37 µM.
Regarding `C=CC(=O)N1C[C@H](C)N(C2=NC(=O)C(C)(CC(C)C)c3nc(-c4ccccc4F)c(Cl)cc32)C[C@H]1C` (single isomer, unassigned) [Example 1-8-2], in test [1] (MIA PaCa-2 cells), the negative-log IC50 (pIC50) was 5.79. The “Coupled Exchange IC50” value in test [2] stood at 4.95 µM.
Take `C=CC(=O)N1C[C@H](C)N(C2=NC(=O)C(C)(C3CCC3)c3nc(-c4ccccc4F)c(Cl)cc32)C[C@H]1C` (single isomer, unassigned) [Example 1-3-2]: the pIC50 in test [1] (setting [3]) was 6.46. For the same compound, the “Coupled Exchange IC50” value in test [2] turned out to be 0.55 µM.
The like results for `C=CC(=O)N1C[C@H](C)N(C2=NC(=O)C3(CCc4ccccc43)c3nc(-c4ccccc4F)c(Cl)cc32)C[C@H]1C` (stereo partly drawn) [Example 1-7, 5′-((2S,5R)-4-Acryloyl-2,5-dimethylpiperazin-1-yl)-3′-chloro-2′-(2-fluorophenyl)-2,3-dihdyro-7′H-spiro[indene-1,8′-[1,6]naphthyridin]-7′-one] were, in that order, 5.75 and 8.04 µM.
`C=CC(=O)N1C[C@H](C)N(C2=NC(=O)C(C)(C3CCC3)c3nc(-c4ccccc4F)c(Cl)cc32)C[C@H]1C` (stereo partly drawn) [Example 1-3, 5-((2S,5R)-4-Acryloyl-2,5-dimethylpiperazin-1-yl)-3-chloro-8-cyclobutyl-2-(2-fluorophenyl)-8-methyl-1,6-naphthyridin-7(8H)-one]: the pIC50 in test [1] (setting [3]) was 6.02. Also, the “Coupled Exchange IC50” value in test [2] is 1.69 µM.
